Patent US20090285773A1, “Hepatitis C Virus Inhibitors” (Bristol-Myers Squibb Company, priority 2008, published 2009)
Where two headings read alike, the source gives them in different places.

Legend:
[1] = system: HCV replicon (strain 1b) in HUH-7 cells; assay: HCV replicon FRET assay; assay type: cell-based; conditions: Hepatitis C virus
Source text: An HCV replicon whole cell system was established as described by Lohmann V, Korner F, Koch J, Herian U, Theilmann L, Bartenschlager R., Science 285(5424): 110-3 (1999). This system enabled us to evaluate the effects of our HCV Protease compounds on HCV RNA replication. Briefly, using the HCV strain 1b sequence described in the Lohmann paper (Assession number:AJ238799), an HCV cDNA was synthesized by Operon Technologies, Inc. (Alameda, Calif.), and the full-length replicon was then assembled in plasmid pGem9zf(+) (Promega, Madison, Wis.) using standard molecular biology techniques. The replicon consists of (i) the HCV 5′ UTR fused to the first 12 amino acids of the capsid protein, (ii) the neomycin phosphotransferase gene (neo), (iii) the IRES from encephalomyocarditis virus (EMCV), and (iv) HCV NS3 to NS5B genes and the HCV 3′ UTR. Plasmid DNAs were linearized with ScaI and RNA transcripts were synthesized in vitro using the T7 MegaScript transcription kit (Ambion, Austin, Tex.) according to manufacturer's directions. In vitro transcripts of the cDNA were transfected into the human hepatoma cell line, HUH-7. […] Resulting cell lines were characterized for positive and negative strand RNA production and protein production over time.
The HCV replicon FRET assay was developed to monitor the inhibitory effects of compounds described in the disclosure on HCV viral replication. HUH-7 cells, constitutively expressing the HCV replicon, were grown in Dulbecco's Modified Eagle Media (DMEM) (Gibco-BRL) containing 10% Fetal calf serum (FCS) (Sigma) and 1 mg/ml G418 (Gibco-BRL). Cells were seeded the night before (1.5×10^4 cells/well) in 96-well tissue-culture sterile plates. Compound and no compound controls were prepared in DMEM containing 4% FCS, 1:100 Penicillin/Streptomysin (Gibco-BRL), 1:100 L-glutamine and 5% DMSO in the dilution plate (0.5% DMSO final concentration in the assay). Compound/DMSO mixes were added to the cells and incubated for 4 days at 37° C. After 4 days, cells were first assessed for cytotoxicity using alamar Blue (Trek Diagnotstic Systems) for a CC50 reading. The toxicity of compound (CC50) was determined by adding 1/10th volume of alamar Blue to the media incubating the cells. After 4 h, the fluorescence signal from each well was read, with an excitation wavelength at 530 nm and an emission wavelength of 580 nm, using the Cytofluor Series 4000 (Perspective Biosystems). Plates were then rinsed thoroughly with Phosphate-Buffered Saline (PBS) (3 times 150 μl).

[2] = molecular target: HCV NS3/4A protease complex, BMS strain (genotype 1a) (UniProt P27958, species not given/STRAIN_BMS); assay: FRET peptide assay, HCV NS3/4A protease complex, BMS strain; assay type: biochemical; conditions: read-out: IC50 against the NS3/4A BMS strain in the enzyme assay
Source text: HCV NS3 protease complexes, derived from the BMS strain, H77 strain or J4L6S strain, were generated, as described below. These purified recombinant proteins were generated for use in a homogeneous assay (see below) to provide an indication of how effective compounds of the present disclosure would be in inhibiting HCV NS3 proteolytic activity.
Serum from an HCV-infected patient was obtained from Dr. T. Wright, San Francisco Hospital. […]
In order to monitor HCV NS3/4A protease activity, an NS3/4A peptide substrate was used. […] The peptide also contains a fluorescence donor, EDANS, near one end of the peptide and an acceptor, DABCYL, near the other end. The fluorescence of the peptide is quenched by […] resonance energy transfer (RET) between the donor and the acceptor, but as the NS3 protease cleaves the peptide the products are released from RET quenching and the fluorescence of the donor becomes apparent.
The peptide substrate was incubated with one of the three recombinant NS3/4A protease complexes, in the absence or presence of a compound of the present disclosure. The inhibitory effects of a compound were determined by monitoring the formation of fluorescent reaction product in real time using a Cytofluor Series 4000. […]

Chain of HCV NS3/4A protease complex, BMS strain (genotype 1a) (P27958 1027-1657, stated change not applied, one chain of several): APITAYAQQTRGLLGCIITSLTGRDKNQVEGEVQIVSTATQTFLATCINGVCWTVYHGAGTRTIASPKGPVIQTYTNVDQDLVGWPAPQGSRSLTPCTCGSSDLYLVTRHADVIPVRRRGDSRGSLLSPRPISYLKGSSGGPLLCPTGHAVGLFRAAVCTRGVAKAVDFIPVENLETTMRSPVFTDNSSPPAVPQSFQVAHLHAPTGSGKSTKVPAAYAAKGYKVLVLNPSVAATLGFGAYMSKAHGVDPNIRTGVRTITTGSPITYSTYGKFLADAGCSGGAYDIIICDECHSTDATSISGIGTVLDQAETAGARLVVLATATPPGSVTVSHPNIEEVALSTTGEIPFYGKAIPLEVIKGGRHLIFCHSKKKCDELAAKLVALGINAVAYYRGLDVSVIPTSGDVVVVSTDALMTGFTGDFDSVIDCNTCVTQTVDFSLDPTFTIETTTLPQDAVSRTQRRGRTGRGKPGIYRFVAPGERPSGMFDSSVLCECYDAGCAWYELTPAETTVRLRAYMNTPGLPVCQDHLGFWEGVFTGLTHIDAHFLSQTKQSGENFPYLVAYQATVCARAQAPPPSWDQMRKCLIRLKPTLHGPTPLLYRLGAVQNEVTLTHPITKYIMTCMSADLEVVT

**Q.** `COc1ccc2c(O[C@@H]3C[C@H]4C(=O)N[C@]5(C(=O)NS(=O)(=O)C6CC6)C[C@H]5/C=C\CCCCC[C@H](Nc5ccc(OC)nc5)C(=O)N4C3)nccc2c1` (single isomer, unassigned) [Compound 1] was tested. Which EC50 ([1]; 96 h, HUH-7 replicon cells, 4 days, read-out: EC50 value in the replicon FRET assay) did it give?
**A.** 21 nM

**Q.** And the EC50 ([1]; Huh-7, Table 2, replicon assay variant and unit inferred, read-out: EC50)?
**A.** 20.5 nM

**Q.** What about the IC50 [2] of the same compound?
**A.** 8.7 nM
